Where two headings read alike, the source gives them in different places.
Experiments:
mPGES-1 Mouse enzyme = target: T1, mPGES-1 Mouse enzyme (Mus musculus, UniProt Q9JM51); experiment: mPGES-1 enzyme activity assay (PGE2 enzyme immunoassay), mouse enzyme; type: biochemical; settings: for IC50: recombinant microsomal enzyme, means ± SD, triplicate; for inhibition at 10 µM: compound at a concentration of 10 μM, read-out: % inhibition of the compound against mPGES-1, Mouse enzyme
T1 construct: made in house; host or cells: FreeStyle 293-F cells, crude microsomal preparation
T1 sequence (Q9JM51 1-153): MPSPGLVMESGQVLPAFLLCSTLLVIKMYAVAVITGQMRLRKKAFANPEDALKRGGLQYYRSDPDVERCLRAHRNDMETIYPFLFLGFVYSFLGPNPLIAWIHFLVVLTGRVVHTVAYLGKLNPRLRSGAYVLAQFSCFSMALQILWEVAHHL
Procedure: (§1) Studies were conducted to characterize the inhibitory activity against recombinant mPGES-1 of the compounds synthesized in accordance with Examples 1-4, and disclosed herein.
(§2) Briefly, FreeStyle 293-F cells were cultured following manufacturer's manual in FreeStyle 293 expression medium on orbit rotate shaker in 8% CO2 incubator at 37° C. Cells were transfected with 1.5 μg/mL of mPGES-1/pcDNA3 construct using FreeStyle Max reagent at a cell density of 1×10^6 for 2 days. Transfected cells were collected, washed, and sonicated in TSES buffer (15 mM Tris-HCl, pH 8.0 plus 0.25 M sucrose, 0.1 mM EDTA and 1 mM DTT) on ice. The broken cells were first centrifuged at 12,500×g for 10 min. The supernatant was further centrifuged at 105,000×g for 1 hr at 4° C. The pellet was washed and homogenized in PBS buffer. The crude microsomal mPGES-1 preparation was aliquoted and stored at −80° C. The crude protein concentration was 8 mg/mL.
(§3) The enzyme activity assays were performed on ice in 1.5 ml microfuge tubes by using the expressed mPGES-1. The reaction mixture contained: 0.2 M Na2HPO4/NaH2PO4, pH 7.2, 10 μL; 0.1 M GSH, 2.5 μL; diluted microsomal enzyme (80 μg/mL), 1 μL; PGH2 (0.31 mM in DMF), 5 μL; 1 μL inhibitor; and H2O in a final reaction volume of 100 μL. PGH2 was stored in dry ice and used to initiate the reaction.
(§4) Compounds were incubated with the enzyme for 15 min at room temperature before the addition of cold PGH2 (1 μM final) to initiate the enzyme reaction. After 30 s, 10 μL of SnCl2 (40 mg/mL) in ethanol was added to stop the reaction. The nonenzymatic conversion of PGH2 to PGE2 was performed in the same buffer devoid of enzyme. The reaction mixture was placed on ice until PGE2 production was determined by the PGE2 enzyme immunoassay as described earlier. IC50 values of the inhibitors were calculated by using the GraphPad Prism 4.0 program. The results are set forth in the tables provided in Examples 7-10.

mPGES-1 = target: T2, mPGES-1 (Homo sapiens, UniProt O14684); experiment: mPGES-1 enzyme activity assay (PGE2 enzyme immunoassay), human enzyme; type: biochemical; design: made in house; host or cells: FreeStyle 293-F cells, crude microsomal preparation; settings: recombinant microsomal enzyme, means ± SD, triplicate
T2 sequence (O14684 1-152): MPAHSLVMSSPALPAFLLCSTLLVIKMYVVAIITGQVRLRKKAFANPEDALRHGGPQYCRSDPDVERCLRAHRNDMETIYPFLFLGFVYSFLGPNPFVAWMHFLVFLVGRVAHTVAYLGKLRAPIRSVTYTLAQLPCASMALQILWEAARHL
Procedure: as §1, §2, §3, §4

[1] = IC50 against mPGES-1, Mouse enzyme
[2] = IC50 against mPGES-1, Human enzyme
[3] = read-out: IC50 against mPGES-1, Human enzyme
[4] = read-out: IC50 against mPGES-1, Mouse enzyme

| Compound | IC50 (mPGES-1 Mouse enzyme; [1]) [nM] | IC50 (mPGES-1; [2]) [nM] | inhibition at 10 µM (mPGES-1 Mouse enzyme) [%] | IC50 (mPGES-1; [3]) [nM] | IC50 (mPGES-1 Mouse enzyme; [4]) [nM] |
| --- | --- | --- | --- | --- | --- |
| CCOc1cc(C=C2C(=O)NC(=O)NC2=O)ccc1OCCCCC1CCCCC1 [Compound I-07] | 2410 ± 339 | 186 ± 26 |  |  |  |
| COc1cc(C=C2C(=O)NC(=O)NC2=O)cc(Cl)c1OCCCCC1CCCCC1 [Compound I-09] | 360 ± 56 | 22 ± 7 |  |  |  |
| COc1cc(C=C2C(=O)NC(=O)NC2=O)cc(Br)c1OCCCCC1CCCCC1 [Compound I-10] | 292 ± 47 | 69 ± 16 |  |  |  |
| COc1cc(C=C2C(=O)NC(=O)NC2=O)cc(I)c1OCCCCC1CCCCC1 [Compound I-11] | 359 ± 50 | 54 ± 12 |  |  |  |
| COc1ccc(C=C2C(=O)NC(=O)NC2=O)cc1OCCCCC1CCCCC1 [Compound I-12] | 727 ± 109 | 152 ± 53 |  |  |  |
| O=C1NC(=O)C(=Cc2cc(Cl)ccc2OCCCCC2CCCCC2)C(=O)N1 [Compound I-13] |  |  | 28 | 87 ± 27 |  |
| O=C1NC(=O)C(=Cc2cc(Br)ccc2OCCCCC2CCCCC2)C(=O)N1 [Compound I-14] |  | 96 ± 14 | 38 |  |  |
| O=C1NC(=O)C(=Cc2cc(I)ccc2OCCCCC2CCCCC2)C(=O)N1 [Compound I-15] | 12100 ± 1960 | 135 ± 18 |  |  |  |
| O=C1NC(=O)C(=Cc2c(OCCCCC3CCCCC3)ccc3ccccc23)C(=O)N1 [Compound I-16] | 7040 ± 1850 | 154 ± 18 |  |  |  |
| O=C1NC(=O)C(=Cc2ccc(OCCCCC3CCCCC3)c3ccccc23)C(=O)N1 [Compound I-17] | 3700 ± 562 | 171 ± 34 |  |  |  |
| CN1C(=O)C(=Cc2ccc(OCCCCC3CCCCC3)c(Cl)c2)C(=O)N(C)C1=O [Compound I-18] |  | 272 ± 30 | 8 |  |  |
| CN1C(=O)C(=Cc2ccc(OCCCCC3CCCCC3)c(Br)c2)C(=O)N(C)C1=O [Compound I-19] |  | 427 ± 55 | 24 |  |  |
| CN1C(=O)C(=Cc2ccc(OCCCCC3CCCCC3)c([N+](=O)[O-])c2)C(=O)N(C)C1=O [Compound I-20] |  | 561 ± 55 | 15 |  |  |
| O=C1NC(=O)C(=Cc2ccc(OCCCCC3CCCCC3)c(Cl)c2)C(=O)N1 [Compound I-21] | 415 ± 120 | 28 ± 3 |  |  |  |
| O=C1NC(=O)C(=Cc2ccc(OCCCC3CCCCC3)c([N+](=O)[O-])c2)C(=O)N1 [Compound I-26] | 373 ± 51 | 156 ± 30 |  |  |  |
| CN1C(=O)C(=Cc2ccc(OCCCC3CCCCC3)c(Cl)c2)C(=O)N(C)C1=O [Compound I-27] |  | 240 ± 20 | 29 |  |  |
| CN1C(=O)C(=Cc2ccc(OCCCC3CCCCC3)c(Br)c2)C(=O)N(C)C1=O [Compound I-28] |  | 127 ± 14 | 30 |  |  |
| CN1C(=O)C(=Cc2ccc(OCCCC3CCCCC3)c([N+](=O)[O-])c2)C(=O)N(C)C1=O [Compound I-29] |  | 188 ± 21 | 41 |  |  |
| O=C1NC(=O)C(=Cc2ccc(OCCCC3CCCCC3)c([N+](=O)[O-])c2)C(=O)N1 [Compound I-32] | 428 ± 58 | 73 ± 12 |  |  |  |
| O=C1NC(=O)C(=Cc2ccc(OCCCCc3ccccc3)c(Cl)c2)C(=O)N1 [Compound I-33] | 2790 ± 525 | 73 ± 10 |  |  |  |
| O=C1NC(=O)C(=Cc2ccc(OCCCOc3ccccc3)c(Cl)c2)C(=O)N1 [Compound I-34] | 8130 ± 1010 | 349 ± 40 |  |  |  |
| O=C1NC(=O)C(=Cc2ccc(OCCCOc3ccc(-c4ccccc4)cc3)c(Cl)c2)C(=O)N1 [Compound I-35] |  | 337 ± 34 | 17 |  |  |
| O=C1NC(=O)C(=Cc2ccc(OCCCOc3ccc4ccccc4c3)c(Cl)c2)C(=O)N1 [Compound I-36] |  | 365 ± 59 | 19 |  |  |
| O=C1NC(=O)C(=Cc2ccc(OCCC3CCCCC3)c([N+](=O)[O-])c2)C(=O)N1 [Compound I-37] | 2390 ± 425 | 517 ± 68 |  |  |  |
| O=C1NC(=O)C(=Cc2ccc(OCC3CCCCC3)c([N+](=O)[O-])c2)C(=O)N1 [Compound I-38] |  | 1110 ± 104 | 42 |  |  |
| CCCCCOc1ccc(C=C2C(=O)NC(=O)NC2=O)cc1[N+](=O)[O-] [Compound I-39] | 6310 ± 1140 | 460 ± 64 |  |  |  |
| CCCCCCCOc1ccc(C=C2C(=O)NC(=O)NC2=O)cc1[N+](=O)[O-] [Compound I-40] | 734 ± 119 | 232 ± 54 |  |  |  |

| Compound | IC50 (mPGES-1 Mouse enzyme; [1]) [nM] | IC50 (mPGES-1; [2]) [nM] | inhibition at 10 µM (mPGES-1 Mouse enzyme) [%] | IC50 (mPGES-1; [3]) [nM] | IC50 (mPGES-1 Mouse enzyme; [4]) [nM] |
| --- | --- | --- | --- | --- | --- |
| CCCCCCCCCOc1ccc(C=C2C(=O)NC(=O)NC2=O)cc1[N+](=O)[O-] [Compound I-41] | 1300 ± 163 | 188 ± 43 |  |  |  |
| O=C1NC(=O)C(Cc2ccc(OCCCCC3CCCCC3)c(Cl)c2)C(=O)N1 [Compound I-42] | 1330 ± 151 | 133 ± 20 |  |  |  |
| O=C1NC(=O)C(Cc2ccc(OCCCCC3CCCCC3)c(Br)c2)C(=O)N1 [Compound I-43] | 1090 ± 211 | 97 ± 13 |  |  |  |
| O=C1NC(=O)C(Cc2ccc(OCCCCC3CCCCC3)c([N+](=O)[O-])c2)C(=O)N1 [Compound I-44] | 3350 ± 560 | 136 ± 23 |  |  |  |
| CCCCCCOc1ccc(C=C(C#N)C#N)cc1[N+](=O)[O-] [Compound V-04] |  |  |  | 285 ± 40 | 754 ± 73 |
| CCCCCCCOc1ccc(C=C(C#N)C#N)cc1[N+](=O)[O-] [Compound V-05] |  |  |  | 135 ± 16 | 776 ± 217 |
| CCCCCCCCOc1ccc(C=C(C#N)C#N)cc1[N+](=O)[O-] [Compound V-06] |  |  |  | 89 ± 12 | 716 ± 120 |
| CCCCCCCOc1ccc(C=C(C#N)C#N)cc1 [Compound V-10] |  |  |  | 136 ± 13 | 1390 ± 255 |
| CCCCCCOc1c(Br)cc(C=C(C#N)C#N)cc1OC [Compound V-13] |  |  |  | 181 ± 33 | 1630 ± 250 |
| CCCCCCCOc1c(Br)cc(C=C(C#N)C#N)cc1OC [Compound V-15] |  |  |  | 83 ± 14 | 357 ± 52 |
| CCCCCCCCOc1c(Br)cc(C=C(C#N)C#N)cc1OC [Compound V-18] |  |  |  | 74 ± 8 | 572 ± 83 |
| CCCCCCCCCCCCCCCCCCOc1c(Br)cc(C=C(C#N)C#N)cc1OC [Compound V-20] |  |  |  | 50 ± 9 | 270 ± 64 |
| CCCCOc1ccc(C=C(C#N)C#N)cc1OC [Compound V-22] |  |  |  | 348 ± 100 | 1770 ± 241 |
| CCCCCCCCCCOc1ccc(/C=C(\C#N)C(=O)O)cc1OC [Compound V-27] |  |  |  | 51 ± 10 | 390 ± 84 |
| CCCCCCCOc1ccc(C=C(C#N)C#N)cc1OC [Compound V-35] |  |  |  | 256 ± 33 | 7290 ± 2550 |
| O=C(O)CN1C(=O)S/C(=C2\C(=O)N(Cc3ccccc3)c3ccccc32)C1=O [II-01] |  |  | 10 | 817 ± 79 |  |
| O=C(O)CN1C(=O)S/C(=C2\C(=O)N(Cc3ccc(Cl)cc3)c3ccccc32)C1=O [II-02] |  |  | 45 | 614 ± 63 |  |
| O=C(O)CN1C(=O)S/C(=C2\C(=O)N(CCc3ccccc3)c3ccccc32)C1=O [II-03] |  |  | 62 | 348 ± 44 |  |
| O=C(O)CN1C(=O)S/C(=C2\C(=O)N(CCCc3ccccc3)c3ccccc32)C1=O [II-04] |  |  |  | 2400 ± 132 | 747 ± 163 |
| O=C(O)CN1C(=O)S/C(=C2\C(=O)N(CCCCc3ccccc3)c3ccccc32)C1=O [II-05] |  |  | 61 | 963 ± 87 |  |
| O=C(O)CN1C(=O)S/C(=C2\C(=O)N(CC3CCCCC3)c3ccccc32)C1=O [II-06] |  |  |  | 1270 ± 104 | 2730 ± 422 |
| O=C(O)CN1C(=O)S/C(=C2\C(=O)N(CCC3CCCCC3)c3ccccc32)C1=O [II-07] |  |  | 39 | 494 ± 32 |  |
| O=C(O)CN1C(=O)S/C(=C2\C(=O)N(CCCC3CCCCC3)c3ccccc32)C1=O [II-08] |  |  |  | 253 ± 30 | 1520 ± 317 |
| O=C(O)CN1C(=O)S/C(=C2\C(=O)N(CCCCC3CCCCC3)c3ccccc32)C1=O [II-09] |  |  |  | 499 ± 108 | 947 ± 183 |
| O=C(O)CN1C(=O)S/C(=C2\C(=O)N(CCCOc3ccccc3)c3ccccc32)C1=O [II-10] |  |  | 41 | 805 ± 100 |  |
| O=C(O)CN1C(=O)S/C(=C2\C(=O)N(CCCOc3ccc4ccccc4c3)c3ccccc32)C1=O [II-11] |  |  |  | 1680 ± 168 | 1020 ± 131 |
